Data published in patent US8802597B2, “Herbicidal pyrimidines” (E I du Pont de Nemours and Company, priority 2003, dated 2014).
Where two headings read alike, the source gives them in different places.

Experiments:
Assay in all cases: Test C pre/postemergence
Format in all cases: in vivo
[1] = system: goosegrass (Eleusine indica); details: Eleusine indica; for pest or weed control at 62 g/ha: 62 g ai/ha; for pest or weed control at 125 g/ha: 125 g ai/ha; for pest or weed control at 250 g/ha: 250 g ai/ha; for pest or weed control at 500 g/ha: 500 g ai/ha
Method in brief: (§1)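 Greenhouse pot test: seeds treated preemergence, or plants at 2–18 cm (1- to 4-leaf stage) treated postemergence, with compound in non-phytotoxic solvent plus surfactant. Visual rating versus untreated controls after 12–14 days, scale 0 (no effect) to 100 (complete control); dash means not tested.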

[2] = system: lambsquarters (Chenopodium album); details: Chenopodium album; for pest or weed control at 62 g/ha: 62 g ai/ha; for pest or weed control at 125 g/ha: 125 g ai/ha; for pest or weed control at 250 g/ha: 250 g ai/ha; for pest or weed control at 500 g/ha: 500 g ai/ha
Method in brief: as §1

[3] = system: corn (Zea mays); details: Zea mays; for Corn plant response rating (crop injury, 0 = no effect, 100 = complete kill) at 125 g/ha: 125 g ai/ha; for Corn plant response rating (crop injury, 0 = no effect, 100 = complete kill) at 250 g/ha: 250 g ai/ha; for Corn plant response rating (crop injury, 0 = no effect, 100 = complete kill) at 500 g/ha: 500 g ai/ha
Method in brief: as §1

[4] = system: velvetleaf (Abutilon theophrasti); details: Abutilon theophrasti; for pest or weed control at 62 g/ha: 62 g ai/ha; for pest or weed control at 125 g/ha: 125 g ai/ha; for pest or weed control at 250 g/ha: 250 g ai/ha; for pest or weed control at 500 g/ha: 500 g ai/ha
Method in brief: as §1

[5] = system: cocklebur (Xanthium strumarium); details: Xanthium strumarium; for pest or weed control at 62 g/ha: 62 g ai/ha; for pest or weed control at 125 g/ha: 125 g ai/ha; for pest or weed control at 250 g/ha: 250 g ai/ha; for pest or weed control at 500 g/ha: 500 g ai/ha
Method in brief: as §1

[6] = system: crabgrass (Digitaria sanguinalis); details: Digitaria sanguinalis; for pest or weed control at 62 g/ha: 62 g ai/ha; for pest or weed control at 125 g/ha: 125 g ai/ha; for pest or weed control at 250 g/ha: 250 g ai/ha; for pest or weed control at 500 g/ha: 500 g ai/ha
Method in brief: as §1

[7] = system: eastern black nightshade (Solanum ptycanthum); details: Solanum, pre-emergence, Preemergence, read-out: Plant response rating, Nightshade
Method in brief: as §1

[8] = system: bermudagrass (Cynodon dactylon); details: Cynodon dactylon; for pest or weed control at 62 g/ha: 62 g ai/ha; for pest or weed control at 125 g/ha: 125 g ai/ha; for pest or weed control at 125 g/ha / pest or weed control at 250 g/ha / pest or weed control at 500 g/ha: scale 0 to 100; for pest or weed control at 250 g/ha: 250 g ai/ha; for pest or weed control at 500 g/ha: 500 g ai/ha
Method in brief: as §1

[9] = post-emergence, Postemergence, scale 0 to 100 (0 no effect, 100 complete control), read-out: Goosegrass plant response rating
[10] = post-emergence, Postemergence, scale 0 to 100, read-out: Plant response rating, Goosegrass
[11] = pre-emergence, Preemergence, scale 0 to 100, read-out: Plant response rating, Goosegrass
[12] = post-emergence, Postemergence, scale 0 to 100 (0 no effect, 100 complete control), read-out: Lambsquarters plant response rating
[13] = post-emergence, Postemergence, scale 0 to 100, read-out: Plant response rating, Lambsquarters
[14] = pre-emergence, Preemergence, scale 0 to 100, read-out: Plant response rating, Lambsquarters
[15] = post-emergence, Postemergence, scale 0 to 100
[16] = pre-emergence, Preemergence, scale 0 to 100
[17] = post-emergence, Postemergence, scale 0 to 100 (0 no effect, 100 complete control), read-out: Velvetleaf plant response rating
[18] = post-emergence, Postemergence, scale 0 to 100, read-out: Plant response rating, Velvetleaf
[19] = pre-emergence, Preemergence, scale 0 to 100, read-out: Plant response rating, Velvetleaf
[20] = post-emergence, Postemergence, scale 0 to 100 (0 no effect, 100 complete control), read-out: Cocklebur plant response rating
[21] = post-emergence, Postemergence, scale 0 to 100, read-out: Plant response rating, Cocklebur
[22] = pre-emergence, Preemergence, scale 0 to 100, read-out: Plant response rating, Cocklebur
[23] = post-emergence, Postemergence, scale 0 to 100 (0 no effect, 100 complete control), read-out: Crabgrass plant response rating
[24] = post-emergence, Postemergence, scale 0 to 100, read-out: Plant response rating, Crabgrass
[25] = pre-emergence, Preemergence, scale 0 to 100, read-out: Plant response rating, Crabgrass
[26] = post-emergence, Postemergence, read-out: Plant response rating, Bermudagrass
[27] = pre-emergence, Preemergence, read-out: Plant response rating, Bermudagrass

CCOC(=O)c1nc(C2CC2)nc(N)c1Cl [Compound 4, ethyl 6-amino-5-chloro-2-cyclopropyl-4-pyrimidinecarboxylate]
pest or weed control at 62 g/ha [1, 9]: 0%
pest or weed control at 125 g/ha [1, 9]: 20%
pest or weed control at 250 g/ha [1, 10]: 65%
pest or weed control at 500 g/ha [1, 10]: 75%
pest or weed control at 62 g/ha ([1]; pre-emergence, Preemergence, scale 0 to 100, 0 no effect, 100 complete control, read-out: Plant response rating, Goosegrass): 0%
pest or weed control at 125 g/ha [1, 11]: 25%
pest or weed control at 250 g/ha [1, 11]: 55%
pest or weed control at 500 g/ha [1, 11]: 65%
pest or weed control at 62 g/ha [2, 12]: 100%
pest or weed control at 125 g/ha [2, 12]: 100%
pest or weed control at 250 g/ha [2, 13]: 100%
pest or weed control at 500 g/ha [2, 13]: 100%
pest or weed control at 62 g/ha ([2]; pre-emergence, Preemergence, scale 0 to 100, 0 no effect, 100 complete control, read-out: Plant response rating, Lambsquarters): 95%
pest or weed control at 125 g/ha [2, 14]: 100%
pest or weed control at 250 g/ha [2, 14]: 100%
pest or weed control at 500 g/ha [2, 14]: 100%
Corn plant response rating (crop injury, 0 = no effect, 100 = complete kill) at 62 g/ha ([3]; post-emergence, Postemergence, 62 g ai/ha, scale 0 to 100 (0 no effect, 100 complete control), read-out: Corn plant response rating): 0%
Corn plant response rating (crop injury, 0 = no effect, 100 = complete kill) at 125 g/ha ([3]; post-emergence, Postemergence, scale 0 to 100 (0 no effect, 100 complete control), read-out: Corn plant response rating): 80%
Corn plant response rating (crop injury, 0 = no effect, 100 = complete kill) at 250 g/ha [3, 15]: 90%
Corn plant response rating (crop injury, 0 = no effect, 100 = complete kill) at 500 g/ha [3, 15]: 95%
Corn plant response rating (crop injury, 0 = no effect, 100 = complete kill) at 125 g/ha ([3]; pre-emergence, Preemergence, scale 0 to 100, read-out: Plant response rating, Corn): 0%
Corn plant response rating (crop injury, 0 = no effect, 100 = complete kill) at 250 g/ha [3, 16]: 75%
Corn plant response rating (crop injury, 0 = no effect, 100 = complete kill) at 500 g/ha [3, 16]: 90%
pest or weed control at 62 g/ha [4, 17]: 80%
pest or weed control at 125 g/ha [4, 17]: 100%
pest or weed control at 250 g/ha [4, 18]: 100%
pest or weed control at 500 g/ha [4, 18]: 100%
pest or weed control at 62 g/ha ([4]; pre-emergence, Preemergence, scale 0 to 100, 0 no effect, 100 complete control, read-out: Plant response rating, Velvetleaf): 75%
pest or weed control at 125 g/ha [4, 19]: 95%
pest or weed control at 250 g/ha [4, 19]: 95%
pest or weed control at 500 g/ha [4, 19]: 100%
pest or weed control at 62 g/ha [5, 20]: 85%
pest or weed control at 125 g/ha [5, 20]: 100%
pest or weed control at 250 g/ha [5, 21]: 100%
pest or weed control at 500 g/ha [5, 21]: 100%
pest or weed control at 62 g/ha ([5]; pre-emergence, Preemergence, scale 0 to 100, 0 no effect, 100 complete control, read-out: Plant response rating, Cocklebur): 80%
pest or weed control at 125 g/ha [5, 22]: 95%
pest or weed control at 250 g/ha [5, 22]: 100%
pest or weed control at 500 g/ha [5, 22]: 100%
pest or weed control at 62 g/ha [6, 23]: 70%
pest or weed control at 125 g/ha [6, 23]: 75%
pest or weed control at 250 g/ha [6, 24]: 75%
pest or weed control at 500 g/ha [6, 24]: 80%
pest or weed control at 62 g/ha ([6]; pre-emergence, Preemergence, scale 0 to 100, 0 no effect, 100 complete control, read-out: Plant response rating, Crabgrass): 40%
pest or weed control at 125 g/ha [6, 25]: 65%
pest or weed control at 250 g/ha [6, 25]: 85%
pest or weed control at 500 g/ha [6, 25]: 95%
pest or weed control at 62 g/ha ([7]; 62 g ai/ha, scale 0 to 100, 0 no effect, 100 complete control): 100%
pest or weed control at 125 g/ha ([7]; 125 g ai/ha, scale 0 to 100): 100%
pest or weed control at 250 g/ha ([7]; 250 g ai/ha, scale 0 to 100): 100%
pest or weed control at 500 g/ha ([7]; 500 g ai/ha, scale 0 to 100): 100%
pest or weed control at 62 g/ha ([8]; post-emergence, Postemergence, scale 0 to 100 (0 no effect, 100 complete control), read-out: Bermudagrass plant response rating): 40%
pest or weed control at 125 g/ha [8, 26]: 65%
pest or weed control at 250 g/ha [8, 26]: 70%
pest or weed control at 500 g/ha [8, 26]: 80%
pest or weed control at 62 g/ha ([8]; pre-emergence, Preemergence, scale 0 to 100, 0 no effect, 100 complete control, read-out: Plant response rating, Bermudagrass): 0%
pest or weed control at 125 g/ha [8, 27]: 20%
pest or weed control at 250 g/ha [8, 27]: 45%
pest or weed control at 500 g/ha [8, 27]: 95%
